# Read-outs that look alike come from different tables or passages of the source.
# What was measured:
# [1] = system: U937 human lymphoma cells; assay: Cell death assay in U937 cells (sulforhodamine B, 72 h); type: cell-based
# Experimental: To each well was added 2 μL of 100× compound stock solutions in DMSO at varying concentrations so that the cells were treated with concentrations between 0 μM and 100 μM compound. Each concentration was tested in quintuplicate. In each plate 5 wells received 10 μM etoposide as a positive control and 5 wells received 2 μL of DMSO as a negative control. […] 1 Specifically, to each well of the plate was added 50 μL of an 80% (w/v) solution of TCA in H2O and the plates were allowed to rest at 4° C. overnight. The plates were then washed gently with a steam of H2O five times to remove the excess TCA and precipitated serum proteins. […] After staining, the wells were gently washed 5 times with 100 μL of 1% (v/v) acetic acid to remove the unbound dye. The plates were then allowed to air dry. […] The OD was then read at 510 nm in a Molecular Dynamics plate reader and the percent cell death calculated and normalized to the positive control (100% cell death) and the negative control (0% cell death). The percent cell death was averaged for each compound concentration and plotted as a function of compound concentration. The data were fit to a logistical dose response curve using Table curve 2D and the IC50 value was calculated. The experiment was repeated three times and the average of the calculated IC50 values was reported. The standard error of the mean (SEM) was determined and reported for the triplicate experiments.
# U-937 cells grow in culture as a suspension.
# [2] = system: mice; conditions: cited from earlier work
# [3] = molecular target: T1, caspase-3 (Homo sapiens, UniProt P42574); assay: Caspase-3 activity assay (relief of zinc mediated inhibition); type: biochemical; conditions: for activation at 10 µM: 10 μM compound, 2.5 μM zinc
# T1 construct: Active caspase-3 is a homodimer of heterodimers and is produced by proteolysis of procaspase-3; 6xHis (C); made in house; host or cells: Escherichia coli BL21(DE3), plasmid pHC332
# T1 sequence (P42574 29-175 limits assumed): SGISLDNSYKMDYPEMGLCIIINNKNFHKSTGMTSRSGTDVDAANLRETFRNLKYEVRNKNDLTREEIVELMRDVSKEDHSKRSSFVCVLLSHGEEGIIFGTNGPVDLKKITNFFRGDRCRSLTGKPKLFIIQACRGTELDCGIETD
# T1 sequence (P42574 176-277 limits assumed): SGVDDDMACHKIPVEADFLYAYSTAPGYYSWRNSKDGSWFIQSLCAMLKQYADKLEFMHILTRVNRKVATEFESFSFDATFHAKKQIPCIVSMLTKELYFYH
# Experimental: Caspase-3 Activity Assays—Zinc-free stocks (2×) of caspase-3 (1 μM) were prepared in Caspase Activity Buffer. Compound stock solutions were made (2×) at various concentrations from 200 μM to 200 nM in Caspase Activity Buffer. […] The plates were incubated at room temperature for 30 minutes. […] The data for each compound concentration (4 wells) was averaged and the percent activity was plotted as a function of compound concentration. The data was analyzed using Table Curve 2D and fitted to a logistical dose-response curve. […] The percent activity at 10 μM was determined for each compound and reported as an average of the three replicate experiments with the corresponding SEM.
# [4] = Solubility in β-cyclodextran; type: physicochemical
# [5] = EGTA fluorescence titration assay (zinc binding); conditions: read-out: Zinc Binding (KD) nM
# [6] = system: SK-MEL-5 cells; assay: Live cell confocal imaging, colocalization with caspase-3/-7 activity; type: cell-based, human; conditions: 25 μM with FAM-DEVD-fmk
# Experimental: Live Cell Imaging—SK-Mel-5 cells were grown on the bottom of no. 1 borosilicate growth chambers (Nunc) to a confluency of […]. Cells were then treated with DMSO, 25 μM FAM-DEVD-fmk in DMSO, 25 μM AF350-PAC-1 in DMSO, or both 25 μM FAM-DEVD-fmk and 25 μM AF350-PAC-1 concurrently for 1 hour at 37° C. and 5% CO2. Cells were then washed 5 times with RPMI 1640 growth media lacking phenol red. The cells were then allowed to further incubate at 37° C. for 2 hours before imaging. For cells stained with SYBR green for nuclear staining, a 1:100,000 dilution of SYBR green in media was added immediately prior to imaging. Cells were imaged on a Leica SP2 Multiphoton Confocal microscope.
# [7] = Pharmacokinetics of S-PAC-1 in lymphoma bearing dogs; type: in vivo, dog; conditions: continuous infusion
# Text: In addition, blood was collected from all pet dogs at each scheduled follow up visit to characterize hematologic and non-hematologic toxicity. Between administrations, patients were monitored by pet owners for gastrointestinal toxicity observational scores adhering the Veterinary Co-operative oncology group common terminology and criteria for adverse events (VCOG_CTCAE) (44).
# [8] = Pharmacokinetics of S-PAC-1 i.p. in mice; type: in vivo, mouse; conditions: C57/BL6 mice, 125 mg/kg i.p.
# Text: Mice were sacrificed and blood drawn at varying time points after administration. Blood samples were centrifuged and the serum was collected and analyzed by liquid chromatography to determine drug concentration.
# [9] = molecular target: T2, procaspase-3(D9A/D28A/D175A) mutant (Homo sapiens, UniProt P42574, D175A/D28A/D9A); assay: Procaspase-3 D3A mutant activity in the presence of zinc; type: biochemical; conditions: 10 μM zinc, S-PAC-1 added, monitored at 15 minute intervals
# T2 construct: 6xHis (C); made in house; host or cells: Escherichia coli BL21(DE3) (printed for procaspase-3 in general, not for the mutant by name)
# T2 sequence (P42574 1-277 D9A/D28A/D175A): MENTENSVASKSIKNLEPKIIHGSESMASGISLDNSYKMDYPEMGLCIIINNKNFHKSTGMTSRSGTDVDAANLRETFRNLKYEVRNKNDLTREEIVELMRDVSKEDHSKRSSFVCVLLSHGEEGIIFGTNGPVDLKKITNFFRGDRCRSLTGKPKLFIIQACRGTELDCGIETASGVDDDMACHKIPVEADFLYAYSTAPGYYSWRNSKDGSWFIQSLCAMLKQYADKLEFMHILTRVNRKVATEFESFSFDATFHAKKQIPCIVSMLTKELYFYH
# Text: Zinc ions are known to inhibit procaspase-3. […] The effect of a range of concentrations of zinc on caspase-3 and procaspase-3 enzymatic activity was examined. All buffers were first treated with Chelex® resin to remove any trace metal contaminants. […] To ensure that the activity of the proenzyme was being monitored, a proteolytically uncleavable mutant of procaspase-3 (in which the three aspartic acid cleavage site residues are mutated to alanine (D9A/D28A/D175A)) was used (24,32).
# [10] = Continuous-rate infusion pharmacokinetics in healthy research dogs; type: in vivo; conditions: hound, dog, plasma, continuous intravenous infusion, read-out: steady state plasma concentration
# Experimental: Each dog received an initial loading dose via i.v. infusion over the course of 10 minutes followed by a maintenance dosage delivered by an infusion pump for an additional 24 hours.
# [11] = Homo sapiens, U-937, 72 h, read-out: U937 (IC50 μM), 72 h exposure, sulforhodamine B assay
# [12] = Homo sapiens, U-937, 72 h, 72 h exposure, sulforhodamine B assay, read-out: U937 (IC50 μM)
Structure (SMILES),"IC50 [1, 12] [µM]",activation at 10 µM [3] [%],Kd [5] [nM],also measured
COc1ccc(OC)c(CN2CCN(CC(=O)N/N=C/c3ccccc3O)CC2)c1 [PAC-1-III-1],–,–,–,"IC50 [1, 11]: 12 ± 2 µM"
"c1ccc(CN(CCN(Cc2ccccn2)Cc2ccccn2)Cc2ccccn2)nc1 [TPEN, N,N,N′,N′-tetrakis (2-pyridylmethyl)ethylenediamine]",–,–,–,Neurotoxicity [2]: severe neurotoxicity in mice at low concentrations and rapid death at higher concentrations
C=CCc1cc(/C=N/NC(=O)CN2CCN(Cc3ccccc3)CC2)c(O)c(CC=C)c1 [PAC-1-I-10],–,–,–,"IC50 [1, 11]: 1.8 ± 0.4 µM; IC50 ([1]; read-out: U937 (IC50 μM), 72 h exposure, sulforhodamine B assay): 1.6 ± 0.4 µM"
O=C(CN1CCN(Cc2ccccc2)CC1)NCCc1ccccc1O [PAC-1-IV-6],> 100,4.1 ± 1,–,–
C=CCc1cccc(/C=N/NC(=O)CN2CCN(Cc3cccc(C(=O)O)c3)CC2)c1O [PAC-1-II-8],2.3,–,–,Solubility in β-Cyclodextran (mg β-CD/μmol Compound) [4]: 5.6 mg β-CD/μmol Compound
COc1cc(O)c(/C=N/NC(=O)CN2CCN(Cc3cc(OC)c(OC)c(OC)c3)CC2)c(OC)c1 [PAC-1-III-3],38 ± 6.2,–,–,–
C=CCc1cccc(/C=N/NC(=O)CN2CCN(Cc3cc(OC)ccc3OC)CC2)c1O [PAC-1-II-5],1 ± 0.1,31 ± 3.6,36,Solubility in β-Cyclodextran (mg β-CD/μmol Compound) [4]: 15.2 mg β-CD/μmol Compound
C=CCc1cccc(/C=N/NC(=O)CN2CCN(Cc3cccc(Cn4cc(CNC(=O)Cc5c(C)c6cc(S(=O)(=O)O)c(N)cc6oc5=O)nn4)c3)CC2)c1O [drawing 79],–,–,–,"IC50 ([1]; 72 h exposure, sulforhodamine B assay, read-out: U937 (IC50 μM)): 10.7 µM"
C=CCc1cccc(/C=N/NC(=O)CN2CCC(Cc3ccccc3)CC2)c1O [PAC-1-IV-3],2.7 ± 1.1,36 ± 3,50,–
O=C(CN1CCN(Cc2ccccc2)CC1)NCc1ccccc1O [PAC-1-IV-7],> 100,4.4 ± 0.9,–,–
COc1cc(O)c(/C=N/NC(=O)CN2CCN(Cc3ccccc3CS(=O)(=O)c3ccccc3)CC2)c(OC)c1 [PAC-1-III-6],5.5 ± 1.5,–,–,–
C=CCc1cccc(/C=N/NC(=O)CN2CCN(Cc3ccc(F)cc3)CC2)c1O [PAC-1-II-4],2 ± 0.2,24.2 ± 1.7,96,–
C=CCc1cccc(/C=N/NC(=O)CN2CCN(Cc3cccc(Cn4cc(CNC(=O)Cc5c(C)c6cc(S(=O)(=O)O)c(N)cc6oc5=O)nn4)c3)CC2)c1O [AF-PAC-1],14.8,6.3,61,activation at 50 µM ([3]; 50 μM compound): 20%; colocalization with sites of caspase-3/-7 enzymatic activity [6]: good colocalization
"C=CCc1cccc(/C=N/NC(=O)CN2CCN(Cc3ccc(S(N)(=O)=O)cc3)CC2)c1O [S-PAC-1, (E)-4-((4-(2-(2-(3-allyl-2-hydroxybenzylidene)hydrazinyl)-2-oxoethyl)piperazin-1-yl)methyl)benzenesulfonamide]",–,–,–,Solubility in β-Cyclodextran (mg β-CD/μmol Compound) [4]: 3.5 mg β-CD/μmol Compound; time to steady state from beginning of infusion [7]: ≤ 6 h; S-PAC-1 in the blood at 4 hours post injection [8]: no S-PAC-1 remaining in the blood; enzymatic activity of uncleavable procaspase-3 (D3A) [9]: rapidly (within 5 minutes) enhances the enzymatic activity of the proenzyme; concentration at 24 h [10]: ~15 µM
C=CCc1cccc(/C=N/NC(=O)CN2CCN(Cc3ccccn3)CC2)c1O [PAC-1-II-1],9.5 ± 1.8,48 ± 3,76,–
COc1cccc(/C=N/NC(=O)CN2CCN(Cc3cc(OC)c(OC)c(OC)c3)CC2)c1O [PAC-1-III-2],27 ± 9.4,–,–,–
COc1ccc(OC)c(CN2CCN(CC(=O)N/N=C/c3c(O)cc(OC)cc3OC)CC2)c1 [PAC-1-III-4],17.5,–,–,–
C=CCc1cccc(/C=N/NC(=O)CN2CCN(Cc3ccc(OC)cc3)CC2)c1O [PAC-1-II-6],2.7 ± 0.8,24 ± 3.4,41,Solubility in β-Cyclodextran (mg β-CD/μmol Compound) [4]: 7.1 mg β-CD/μmol Compound
COc1cccc(/C=N/NC(=O)CN2CCN(Cc3ccccc3CS(=O)(=O)c3ccccc3)CC2)c1O [PAC-1-III-5],8.4 ± 1.6,–,–,–
C=CCc1cccc(/C=N/NC(=O)CN2CCN(Cc3cccc([N+](=O)[O-])c3)CC2)c1O [PAC-1-II-7],4.6 ± 1,–,–,Solubility in β-Cyclodextran (mg β-CD/μmol Compound) [4]: 4.0 mg β-CD/μmol Compound

# Source: patent US9643960B2, “Procaspase activating compounds” (The Board of Trustees of the University of Illinois, priority 2009, dated 2017)
